Results published in patent publication US6303621A, “Method for treating cancers using a diiodo thyronine analogue having no significant hormonal activity and a vinca alkaloid and compositions comprising the same” (priority 1999, dated 2001).
“Also recorded” adds a separate entry of the source.

How the values were obtained:
malignant tumor growth = assay: Activity of DIME in vivo (general statement)
human cancer cells [1] = assay: Cytostatic / cytocidal activity of DIME analogues on human cancer cells; assay type: cell-based
Excerpt: Such tests may also screen for the ability of a particular compound to inhibit malignant tumor cell growth in vitro or in vivo or abolish tumorigenicity of malignant cells.
As will be appreciated by the skilled artisan, many varieties of malignant tumor cell cultures and cell lines may be used to screen for activity, including but not limited to HL-60, HT-144, E-ras-20, DU-145, MDA-168, MCF-7, 855-2 and MDA-MB-231. Of course, other in vitro and/or in vivo assays as will be apparent to the skilled artisan to screen for anti-tumor and/or anti-cancer activity may also be employed to identify effective diiodo thyronine analogues useful in the present invention.

human cancer cells [2] = details: studies set forth in U.S. Ser. Nos. 08/655,267 and 08/833,272; cited from earlier work
tubulin α+β = assay: Inhibition of tubulin polymerization / assembly of microtubules; assay type: biochemical; details: FIG. 4b
Description: The optical tests were performed as reported by Buki et al., International Journal of Oncology 10:911-913 (1997).

[3] = test system: MDA-MB-231 human mammary cancer cells; assay: Colony formation (cell killing); assay type: cell-based; details: FIG. 4a
Description: (§1) c. MDA-MB-231 human mammary cancer cells were cultured and treated as reported previously by Mendeleyev et al., International Journal of Oncology 10:689-695 (1997) and Zhen et al., International Journal of Oncology 10:689-695 (1997). For the assay of cell growth kinetics cells, were seeded into 2cm^2 wells (24-well plates) at a density of 8×10^3 /cm^2 at the time of seeding. Vincristine (or vinblastine) and DIME (or DIPE) were added from DMSO dilutions (1-2 μl/ 500 μl culture mediim) either from separate drug solutions or for the construction of median effect plot (FIG. 1) from a pre-made mixture of both drugs (e.g. 0.75 μM DIME+2 nM vincristine) and simultaneous dilutions thereof (Chou et al. Eur. J. Biochem. 115: 207-216 (1981)). The cultures were incubated at 37° C. for 4 days and growth rates, leading to near confluency in drug-free controls, were monitored by cell counting in a haemocytometer after detachment by trypsin treatment Mendeleyev et al., International Journal of Oncology 10:689-695 (1997) and Zhen et al., International Journal of Oncology 10:689-695 (1997). Mathematical analysis of growth curves and median effects and isobolograms were carried out by published procedures (Chou et al. J. Theor. Biol. 65: 345-356 (1977), Chou et al. Eur. J. Biochem. 115: 207-216 (1981) and Chou et al. Adv. in Enzyme Regulation 22:27-55 (1984)) and error bars indicate SD=Σx^2 +L -(Σx)^2 /n where X is the numerical results with n=3-5.
e. Colony formation was quantitated as reported by. Each colony of 50 cells is the outgrowth from one cell, plated 10 days before colony counting.

[4] = test system: esterase activity in certain tumor cells; assay: Stability to hydrolysis (esterase); details: versus DIME
[5] = test system: MDA-MB-231 human mammary cancer cells; assay: Cell growth kinetics, median effect and isobologram; assay type: cell-based; details: 0.75 μM DIME (or DIPE) or 1-2 nM vincristine alone
Description: as §1
Kinetics of vincristine-DIME interactions: Interpretation of conventional isobolograms, consisting of plots of I50 values of two drugs alone and in combination is valid only if it is proven kinetically that both drugs bind at mutually exclusive sites.
Isobologram analysis of the combined action of DIME and vincristine is illustrated in FIG. 2, and it is evident that the action of the two drugs in combination exceed an additive effect, which is depicted by a concave curve, contrasting with additive action, which would display a straight line connecting the I50 values for each drug alone (dotted line in FIG. 2). […]

microtubules = assay: Microtubule binding
[6] = test system: Ras and apoptosis-regulating kineses (ASK1), pathways; details: Wang et al.; cited from earlier work
tadpole metamorphosis = details: in vivo; cited from earlier work
[7] = test system: non-malignant mouse pituitary adenoma; details: in vivo; cited from earlier work
thyroid = details: rat, in vivo; cited from earlier work
[8] = test system: metaphase arrest in cancer cells; assay: Metaphase block (mitotic block); assay type: cell-based; details: FIG. 7
Excerpt: Metaphase was quantitated as reported by Mendeleyev et al., International Journal of Oncology 10:689-695 (1997).
Since vincristine and vinblastine were equivalent here we illustrate only DIME-vinblastine interaction on mitotic block.

caspase 3 [9] = assay: Caspase 3 in cell-free extracts treated with drugs; assay type: biochemical; details: results not shown
caspase 3 [10] = assay: Caspase 3 assay in drug-treated cells; assay type: cell-based, human; details: 0.75 μM DIME or 2 nM vincristine alone, 3 days
Description: g. Caspase 3 assay. MDA 231 cells were grown for 3 days in the absence of drugs (control) or in the presence of 0.75 μM DIME, or in the presence of 2 nM vincristine, or in the presence of both drugs. After harvesting and washing the cells with PBS, they were lysed in a lysis buffer (10 mM HEPES, 5 mM DTT, 2 mM EDTA, 1 mM PMSF, 0.1% CHAPS, 20 μg/ml each of aprotinin, leupeptin, pepstatin, pH 7.4), and were frozen and thawed 3 times. […] Each cell extract was incubated at room temperature with and without preincubation with the caspase inactivator DEVD-CMK. The difference of fluorescence was plotted against time. The fluorescence was calibrated with the fluorophore AFC.

leukemias = details: in vivo; cited from earlier work
[11] = vindesine versus vincristine; cited from earlier work

Which Activity in vivo (malignant tumor growth) does the source give for CCCOc1ccc(Oc2c(I)cc(C(=O)OC)cc2I)cc1 [Compound 3] here?
Its Activity in vivo is “completely inactive”.

And the “Cytostatic and cytocidal activity in cellular assays” value (human cancer cells [1])?
The value was “completely inactive”.

With CCOC(=O)c1cc(I)c(Oc2ccc(OC)cc2)c(I)c1 [Compound 5, Ethyl 3,5-diiodo-4-(4'-methoxyphenoxy)benzoate] as the compound, how does the Activity in vivo (malignant tumor growth) read?
The Activity in vivo was “completely inactive”.

What about the “Cytostatic and cytocidal activity in cellular assays” value (human cancer cells [1]) of the same compound?
The value was “completely inactive”.

For COC(=O)c1cc(I)c(Oc2ccc(OC)cc2Cl)c(I)c1 [Compound 14, Methyl 3,5-diiodo-4-(2'-chloro-4'-methoxyphenoxy)benzoate], which “maximal inhibitory action on the growth of human cancer cells as compared to DIME” value (human cancer cells [2]) is on record?
The value was “about 25%”.

Which results are given for COc1ccc(Oc2c(I)cc(C(C)=O)cc2I)cc1 [DIPE, 1-[3,5-diiodo-4-(4'-methoxyphenoxy)-phenyl]-ethanone]?
Inhibition of assembly of microtubules, DIME versus DIPE (tubulin α+β): equivalency; also recorded: Inhibitory effects; Inhibition of colony formation, DIME versus DIPE [3]: equivalency; also recorded: Equivalent effectivity; Stability to hydrolysis [4]: non-hydrolyzable; Growth rate with single drug [5]: do not elicit effects that exceed the SD of average cell growth rates; Binding to microtubules (microtubules): bind to microtubules

With CC(=O)O[C@H]1C(=O)[C@@]2(C)[C@H]([C@H](OC(=O)c3ccccc3)[C@]3(O)C[C@H](OC(=O)[C@H](O)[C@@H](NC(=O)c4ccccc4)c4ccccc4)C(C)=C1C3(C)C)[C@]1(OC(C)=O)CO[C@@H]1C[C@@H]2O [taxol] as the compound, how does the “Activation of Ras and ASK1 pathways” value [6] read?
Its value is “can activate both Ras and apoptosis-regulating kineses (ASK1), pathways”.

With NC(Cc1cc(I)c(Oc2cc(I)c(O)c(I)c2)c(I)c1)C(=O)O (stereo not shown) [thyroxine, reference compound] as the compound, how does the “Metabolic or cell differentiating activity (tadpole metamorphosis)” value (tadpole metamorphosis) read?
Its value is “induces cell differentiation”.

And the “Growth of non-malignant mouse pituitary tumor” value [7]?
The value was “depress growth”.

And the “Uptake of iodine by the thyroid” value (thyroid)?
The value was “suppresses uptake of iodine by the thyroid”.

With CC[C@]1(O)C[C@@H]2CN(CCc3c([nH]c4ccccc34)[C@@](C(=O)OC)(c3cc4c(cc3OC)N(C)[C@H]3[C@@](O)(C(=O)OC)[C@H](OC(C)=O)[C@]5(CC)C=CCN6CC[C@]43[C@@H]65)C2)C1 [vinblastine] as the compound, how does the “Combined action with DIME on metaphase arrest, vincristine versus vinblastine” value [8] read?
The value was “equivalent”.

What does the source list for CC[C@]1(O)C[C@H]2CN(CCc3c([nH]c4ccccc34)[C@@](C(=O)OC)(c3cc4c(cc3OC)N(C=O)[C@H]3[C@@](O)(C(=O)OC)[C@H](OC(C)=O)[C@]5(CC)C=CCN6CC[C@]43[C@@H]65)C2)C1 [vincristine, reference compound]?
Caspase 3 increase in cell-free extracts (caspase 3 [9]): do not show an increase in caspase 3; Activation of caspase 3, single drug (caspase 3 [10]): small rate of caspase 3 activity; Combined action with DIME on metaphase arrest, vincristine versus vinblastine [8]: equivalent; Growth rate with single drug [5]: do not elicit effects that exceed the SD of average cell growth rates; also recorded: fall within SD values; Activity in leukemias (leukemias): most active and useful agent in the treatment of leukemias

With CC[C@]1(O)C[C@@H]2CN(CCc3c([nH]c4ccccc34)[C@@](C(=O)OC)(c3cc4c(cc3OC)N(C)[C@H]3[C@@](O)(C(N)=O)[C@H](O)[C@]5(CC)C=CCN6CC[C@]43[C@@H]65)C2)C1 [vindesine, 4-desacetyl vinblastine C-3 carboxamide] as the compound, how does the Neurotoxicity in humans [11] read?
The Neurotoxicity in humans was “less neurotoxicity than does vincristine”.

And the Activity in leukemias (leukemias)?
The Activity in leukemias was “active in certain leukemias”.
